Reference: patent US11135214B2, “Methods for enhancing the bio availability and exposure of a voltage-gated potassium channel opener” (priority 2018, dated 2021)
Where “and” joins values, the source holds several entries; their conditions need not be identical. Equal values may be shown once. Read-outs that look alike come from different tables or passages of the source.

How the values were obtained:
[1] = First-in-human SAD and MAD study, pharmacokinetics; format: in vivo
Experimental: A first-in-human study was conducted to evaluate the safety, tolerability and pharmacokinetics (PK) of single and multiple ascending doses (SAD and MAD) of oral Compound A.
In the SAD Phase, 32 healthy volunteers were randomized (3:1) to Compound A (5, 15, 20, 25 or 30 mg) or placebo. The study featured an adaptive design. A crossover food effect cohort (N=10) was also completed with single doses of 20 mg. A sub-set of 8 male subjects were also assessed with Transcranial Magnetic Stimulation (TMS) for effects on cortical excitability (see Examples 4 and 5).
Repeat doses of Compound A (15 mg QD) were evaluated in a fasted and fed state over 7 and 10 days, respectively. Repeat doses of Compound A (25 mg QD) were also evaluated in a fed state over 10 days.
Compound A was formulated as an immediate release capsule. Serial plasma PK samples were collected for all cohorts. Safety evaluations throughout the study included adverse event (AE) monitoring, clinical laboratory tests, vital signs, ECGs, physical examinations and Columbia-Suicide Severity Rating Scale.

cortical excitability [2] = experiment: TMS crossover study, TMS-induced oscillations; format: in vivo, human
Experimental: Before drug intake, at baseline, TMS induced an early increase of theta/alpha power followed by a beta power decrease (de-synchronization) and a final late response of increased beta power. The effects of the active compound on TMS-induced oscillations were then analysed by means of a cluster-based permutation analysis following the same procedure as adopted in the analysis of TEPs. Theta (4-7 Hz), alpha (8-12 Hz) and beta (13-30 Hz) TMS-induced oscillations were compared from 30 ms (the first time-frequency point considered artefact free) to 800 ms between drug conditions. This method was preferred instead of a predetermined set of time windows, given the absence of a consensus for time windows of interest to be used in the TMS induced oscillation analysis. Also, the present cluster-based statistics approach is appropriate for exploratory analyses, as it minimizes false-positives involved in testing multiple time-points.

[3] = tested on: corticospinal excitability; experiment: TMS crossover study, TMS-EMG resting motor threshold (RMT); format: in vivo, human; details: for Resting Motor Threshold, post-dose change from baseline: individual subjects; for Resting Motor Threshold, post-dose change from baseline (Mean): mean of subjects
Experimental: PD assessments included resting state electroencephalogram (RS-EEG); TMS-EMG measurements including resting motor threshold (RMT), active motor threshold (AMT), and short-interval intracortical inhibition (SICI); and TMS-EEG measurements. All 20 subjects underwent TMS-EMG and TMS-EEG sessions prior to dosing on Days 1 and 7 and at 2 and 4 h after dosing. […] For the 6 h timepoint, RMT was performed for 16 subjects, and AMT, EEG resting state, and TMS-EEG was performed for 8 subjects. RMT and AMT values are reported as percentages of maximum stimulator output (% MSO). Drug-induced modulation of TMS-EMG parameters were evaluated over the 3 timepoints (2, 4, and 6 h) and for the timepoint with the highest drug exposure. Individual and averaged RMT values at baseline and change each timepoint for Compound A and placebo for all 20 subjects are presented in Table 18. […] In addition, RMT could not be registered for Subject 912 at 2 hours after Compound A intake.

cortical excitability [4] = experiment: TMS crossover study, global mean field power (GMFP); format: in vivo, human; details: 20 mg, pre-dose vs post-dose (FIG. 12)
Text: Additional measures of cortical excitability including global mean field power were similarly impacted.

[5] = at highest Compound A plasma concentration vs pre-dose
[6] = single 20 mg dose, 2 h post-dose
[7] = single 20 mg dose, 4 h post-dose
[8] = single 20 mg dose, 6 h post-dose

Cc1cc(N2CCc3cc(F)ccc3C2)cc(C)c1NC(=O)CC(C)(C)C [Compound A, N-[4-(6-fluoro-3,4-dihydro-1H-isoquinolin-2-yl)-2,6-dimethylphenyl]-3,3-dimethylbutanamide]
half-life at 7 days ([1]; human, plasma, oral, MAD, 15 mg QD Fasted, Day 7, N=6, mean): 167 h | half-life at 10 days ([1]; human, plasma, oral, MAD, 25 mg QD Fed, Day 10, N=6, mean): 218 h | half-life ([1]; human, plasma, oral, SAD, 5 mg fasted, N=3, Mean ± SD, read-out: T1/2 (converted)): 49.2 ± 31.1 h | half-life ([1]; human, plasma, oral, SAD, 15 mg fasted, N=3, Mean ± SD, read-out: T1/2 (converted)): 41.9 ± 31.1 h | half-life ([1]; human, plasma, oral, SAD, 20 mg fasted, N=6, Mean ± SD, read-out: T1/2 (converted)): 48.9 ± 14.7 h | half-life ([1]; human, plasma, oral, SAD, 25 mg fed standard breakfast, N=6, Mean ± SD, read-out: T1/2 (converted)): 97.2 ± 18 h | half-life ([1]; human, plasma, oral, SAD, 30 mg fasted, N=6, Mean ± SD, read-out: T1/2 (converted)): 63.4 ± 28.2 h | half-life ([1]; human, plasma, oral, immediate release formulation, read-out: effective half-life): > 24 h | dose proportionality of exposure ([1]; multiple doses, fed state): exposure increased in proportion to dose | apparent steady state achieved ([1]; multiple doses, 90% CI of successive day's exposure ratio within 0.8-1.25): 6 to 9 days | peak to trough ratio ([1]; once a day dosing): low | attainment of steady state ([1]; once per day dosing, without titration): 1 week | Modulation of TMS-induced oscillations, Alpha (cortical excitability [2]; 2 h after dosing vs pre-dose): Not significant | Modulation of TMS-induced oscillations, Beta (cortical excitability [2]; 2 h after dosing vs pre-dose): Not significant | Modulation of TMS-induced oscillations, Theta (cortical excitability [2]; 2 h after dosing vs pre-dose): Not significant | Modulation of TMS-induced oscillations, Alpha (cortical excitability [2]; 4 h after dosing vs pre-dose): ↓ Alpha 250-390 ms | Modulation of TMS-induced oscillations, Beta (cortical excitability [2]; 4 h after dosing vs pre-dose): ↑ Beta 250-330 ms | Modulation of TMS-induced oscillations, Theta (cortical excitability [2]; 4 h after dosing vs pre-dose): ↓ Theta 30-180 ms | theta TMS-induced oscillations (cortical excitability [2]; all available subjects, 2 h post-dose): trend to suppress | alpha TMS-induced oscillations (cortical excitability [2]; all available subjects, 4 h, p=0.03, 250 to 400 ms): suppressed | theta induced oscillations (cortical excitability [2]; all available subjects, 6 h, p=0.03, 80 to 300 ms): significant depression | alpha band TMS-induced oscillations (cortical excitability [2]; all available subjects, 6 h, trend p=0.07, 270-390 ms): trend to suppress | Modulation of TMS-induced oscillations, Alpha (cortical excitability [2]; [5]): ↓ Alpha 220-400 ms | Modulation of TMS-induced oscillations, Beta (cortical excitability [2]; [5]): ↑ Beta 210-310 ms | Modulation of TMS-induced oscillations, Theta (cortical excitability [2]; [5]): ↓ Theta 30-390 ms | early theta TMS-induced oscillations (cortical excitability [2]; concentration analysis N=16, p<0.001, 30 to 390 ms): suppressed | alpha TMS-induced oscillations (cortical excitability [2]; concentration analysis N=16, p=0.02, 220 to 400 ms): suppressed | beta TMS-induced power (cortical excitability [2]; concentration analysis N=16, p=0.04, 220 to 310 ms): increased | TMS-induced oscillations (cortical excitability [2]; subjects with drug exposure, 2 h post-dose): did not modulate oscillations | early theta TMS-induced oscillations (cortical excitability [2]; subjects with drug exposure, 4 h, p=0.03, 30 to 180 ms): suppressed | alpha TMS-induced oscillations (cortical excitability [2]; subjects with drug exposure, 4 h, p=0.03, 250 to 390 ms): suppressed | beta TMS-induced desynchronization (cortical excitability [2]; subjects with drug exposure, 4 h, p=0.04, 250 to 330 ms): increased | theta induced oscillations (cortical excitability [2]; subjects with drug exposure, 6 h, p<0.001, 30 to 280 ms): significant depression | RMT ([3]; 20 mg single dose): significant increase in RMT | RMT increase, mean±SEM ([3]; 20 mg, 6 h): 4.9±0.7% | effect on RMT ([3]; 20 mg, 6 h post-dose): > 4% | Resting Motor Threshold, post-dose change from baseline [3, 6]: 3 % MSO (4×) and 1 % MSO (4×) and 0 % MSO (7×) and 2 % MSO (3×) and 6 % MSO | Resting Motor Threshold, post-dose change from baseline [3, 7]: 7 % MSO (2×) and 1 % MSO (4×) and 0 % MSO (4×) and 6 % MSO (2×) and 3 % MSO (3×) and 5 % MSO and 10 % MSO and 2 % MSO (2×) and 4 % MSO | Resting Motor Threshold, post-dose change from baseline [3, 8]: 8 % MSO (2×) and 4 % MSO (3×) and 6 % MSO (2×) and 10 % MSO and 1 % MSO (2×) and 0 % MSO and 7 % MSO (3×) and 3 % MSO (2×) | Resting Motor Threshold, post-dose change from baseline (Mean) [3, 6]: 1.5 % MSO | Resting Motor Threshold, post-dose change from baseline (Mean) [3, 7]: 3.1 % MSO | Resting Motor Threshold, post-dose change from baseline (Mean) [3, 8]: 4.9 % MSO | RMT compared to time matched placebo ([3]; single 20 mg dose, 2, 4, and 6 h post-dose): increased RMT from baseline | global mean field power (GMFP) (cortical excitability [4]): reduction of cortical excitability over time
